Results published in patent publication US20060063759A1, “Tricyclic steroid hormone nuclear receptor modulators” (priority 2002, published 2006).

Experiments:
human MR = molecular target: T1, human MR (Homo sapiens, UniProt P08235); experiment: Mineralocorticoid Receptor Binding Assay ([3H]-aldosterone); conditions: [3H]-aldosterone binding, human MR expressed in Sf9 cells; read-out: MR Ki
T1 construct: The full length human MR gene is cloned from a human kidney or human brain cDNA library; His tag from the pAcHLT vector (own knowledge); made in house; host or cells: Sf9 insect cells (baculovirus, pAcHLT transfer vector)
T1 sequence (P08235 1-984): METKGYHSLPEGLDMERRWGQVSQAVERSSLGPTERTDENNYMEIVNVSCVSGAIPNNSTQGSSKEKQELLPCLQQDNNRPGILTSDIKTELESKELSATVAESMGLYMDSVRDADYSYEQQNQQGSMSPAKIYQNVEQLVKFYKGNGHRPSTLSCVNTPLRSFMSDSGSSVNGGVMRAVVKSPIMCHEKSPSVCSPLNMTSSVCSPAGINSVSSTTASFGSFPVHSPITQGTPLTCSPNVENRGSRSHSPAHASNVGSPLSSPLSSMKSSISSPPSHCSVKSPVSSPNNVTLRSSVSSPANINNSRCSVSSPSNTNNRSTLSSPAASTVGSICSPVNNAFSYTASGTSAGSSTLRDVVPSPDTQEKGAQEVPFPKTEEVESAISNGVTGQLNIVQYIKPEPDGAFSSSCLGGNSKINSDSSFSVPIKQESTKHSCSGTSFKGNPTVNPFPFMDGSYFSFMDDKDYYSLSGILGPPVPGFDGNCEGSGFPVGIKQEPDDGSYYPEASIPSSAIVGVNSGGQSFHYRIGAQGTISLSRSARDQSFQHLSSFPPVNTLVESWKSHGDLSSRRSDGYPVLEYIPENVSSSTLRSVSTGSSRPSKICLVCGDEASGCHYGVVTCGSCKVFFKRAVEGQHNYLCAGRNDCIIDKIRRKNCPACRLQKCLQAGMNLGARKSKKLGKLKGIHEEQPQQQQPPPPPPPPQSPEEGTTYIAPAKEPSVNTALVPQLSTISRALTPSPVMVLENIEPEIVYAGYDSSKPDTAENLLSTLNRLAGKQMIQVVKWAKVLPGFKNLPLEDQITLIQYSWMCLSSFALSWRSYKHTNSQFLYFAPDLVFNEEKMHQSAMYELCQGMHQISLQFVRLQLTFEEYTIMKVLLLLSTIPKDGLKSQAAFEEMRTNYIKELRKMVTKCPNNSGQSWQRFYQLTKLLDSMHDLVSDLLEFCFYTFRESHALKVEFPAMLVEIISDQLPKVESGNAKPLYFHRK
Procedure, shortened: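 Lysate supernatant of Sf9 cells expressing full-length human MR (20-25 μg protein) was incubated with 0.5 nM [3H]-aldosterone and test compound in molybdate/Tris/phosphate/glycerol buffer, pH 7.5, ~16 h at 4 °C. Bound ligand was filtered and counted by scintillation; IC50 is the concentration halving [3H]-aldosterone binding.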

glucocorticoid receptor = molecular target: T2, glucocorticoid receptor (Homo sapiens, UniProt P04150); experiment: Glucocorticoid Receptor Binding Assay ([3H]-dexamethasone, A549 cell extract); conditions: [3H]-dexamethasone binding, read-out: GR Ki
T2 construct: containing 50-200 ug of A549 cell extract and 1.86 nM [^3H]-dexamethasone; host or cells: A549 human lung epithelial cells (sonicated cell extract)
T2 sequence (P04150 1-777): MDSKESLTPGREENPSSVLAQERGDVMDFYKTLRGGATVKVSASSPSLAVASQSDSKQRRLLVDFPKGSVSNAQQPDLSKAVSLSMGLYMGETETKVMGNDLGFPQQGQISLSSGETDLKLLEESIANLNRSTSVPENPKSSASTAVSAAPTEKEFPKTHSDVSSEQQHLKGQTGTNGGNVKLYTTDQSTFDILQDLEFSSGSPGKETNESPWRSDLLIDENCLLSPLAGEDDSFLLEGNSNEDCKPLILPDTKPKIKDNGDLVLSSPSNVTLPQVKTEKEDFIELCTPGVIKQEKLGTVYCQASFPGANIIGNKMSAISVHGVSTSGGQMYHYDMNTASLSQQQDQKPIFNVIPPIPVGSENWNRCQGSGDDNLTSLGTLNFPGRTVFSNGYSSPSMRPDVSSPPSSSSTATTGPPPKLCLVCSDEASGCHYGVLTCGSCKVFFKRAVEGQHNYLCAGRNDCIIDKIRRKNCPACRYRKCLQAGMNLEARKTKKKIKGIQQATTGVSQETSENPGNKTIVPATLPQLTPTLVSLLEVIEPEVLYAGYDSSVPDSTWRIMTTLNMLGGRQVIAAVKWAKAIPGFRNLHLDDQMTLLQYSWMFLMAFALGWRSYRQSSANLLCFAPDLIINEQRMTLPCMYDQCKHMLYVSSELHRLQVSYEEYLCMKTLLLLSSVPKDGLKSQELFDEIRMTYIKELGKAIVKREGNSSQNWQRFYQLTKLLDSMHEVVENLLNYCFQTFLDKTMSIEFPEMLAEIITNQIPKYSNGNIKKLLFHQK
Procedure, shortened: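 A549 cell extract (50–200 ug) incubated with 1.86 nM [3H]-dexamethasone and test compound for 16 h at 4 °C in Tris-HCl pH 7.2 buffer with glycerol and molybdate. Unbound radioligand removed by dextran-coated charcoal, then supernatant bound counts measured by scintillation.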

Compound	Ki (human MR) [nM]	Ki (glucocorticoid receptor) [nM]
CC/C(=C1\c2ccccc2COc2ccccc21)c1cccc(NS(C)(=O)=O)c1 [Example 799]	< 500	< 500
Oc1cccc(C=C2c3ccccc3CCc3c(F)cccc32)c1 [185(b), 3-(1-Fluoro-10,11-dihydro-dibenzo[a,d]cyclohepten-5-ylidenemethyl)-phenol]	< 500	< 1000
CS(=O)(=O)Nc1cccc(/C=C2\c3ccccc3COc3c(Cl)cccc32)c1 [Example 663]	< 500	< 500
COC(=O)c1ccccc1/C=C1\c2ccc(F)cc2CCc2ncccc21 [Example 588]	< 500	< 500
CS(=O)(=O)Nc1cccc(C=C2c3ccc(Cl)cc3CSc3ccccc32)c1 [Example 693]	< 500	< 500
O=c1[nH]c2ccc(/C=C3\c4ccccc4COc4cc(Cl)ccc43)cc2[nH]1 [Example 614, 5-(3-Chloro-6H-dibenzo[b,e]oxepin-11-ylidenemethyl)-1,3-dihydro-benzoimidazol-2-one]	< 500	< 1000
Nc1ccccc1/C=C1/c2ccc(F)cc2CCc2ncccc21 [Example 531]	< 500	< 500
COC(=O)c1cccc(/C=C2/c3ccc(F)cc3CCc3ncccc32)c1 [Example 586]	< 500	< 10000
O=c1[nH]c2cc(/C=C3\c4ccccc4CCc4c(Cl)cccc43)ccc2o1 [Example 221(b)]	< 500	< 500
O=c1[nH]c2cc(/C=C3\c4ccccc4COc4cc(F)ccc43)ccc2n1CCN1CCOCC1 [Example 607, 5-(3-Fluoro-6H-dibenzo[b,e]oxepin-11-ylidenemethyl)-1-(2-morpholin-4-yl-ethyl)-1,3-dihydro-benzoimidazol-2-one]	< 500	< 1000
CS(=O)(=O)Nc1cccc(/C=C2\c3ccc(F)cc3CCc3nc(Cl)sc32)c1 [Example 550]	< 500	< 500
NC(=O)Nc1cccc(C=C2c3ccccc3CCc3ccccc32)c1 [Example 128, [3-(10,11-Dihydro-dibenzo[a,d]cyclohepten-5-ylidenemethyl)-phenyl]-urea]	< 500	< 1000
C(=C1c2ccccc2CCc2ccccc21)c1ccccc1-c1ccccn1 [Example 227, 2-[2-(10,11-Dihydro-dibenzo[a,d]cyclohepten-5-ylidenemethyl)-phenyl]-pyridine]	< 500	< 1000
C/C(=C1\c2ccc(Cl)cc2COc2cc(F)ccc21)c1cccc(NS(C)(=O)=O)c1 [Example 804]	< 500	< 500
Oc1ccc(C=C2c3ccccc3CCc3c(Cl)cccc32)cc1 (mixture of isomers) [Example 212, 4-(1-Chloro-10,11-dihydro-dibenzo[a,d]cyclohepten-5-ylidenemethyl)-phenol]	< 500	< 1000
OCc1ccc(C=C2c3ccccc3CCc3ccccc32)cc1 [Example 76, [4-(10,11-Dihydro-dibenzo[a,d]cyclohepten-5-ylidenemethyl)-phenyl]-methanol]	< 1000	< 500
CS(=O)(=O)Nc1cccc(/C=C2/c3ccccc3OCc3c(Cl)cccc32)c1 [Example 274, N-[3-(7-Chloro-6H-dibenzo[b,e]oxepin-11-ylidenemethyl)-phenyl]-methanesulfonamide]	< 500	< 500
CC(C)n1c(=O)[nH]c2cc(/C=C3\c4ccccc4COc4cc(F)ccc43)ccc21 [Example 612, 5-(3-Fluoro-6H-dibenzo[b,e]oxepin-11-ylidenemethyl)-1-isopropyl-1,3-dihydro-benzoimidazol-2-one]	< 500	< 10000
Nc1cccc(/C=C2\c3ccc(F)cc3CCc3ncccc32)c1 [Example 532]	< 500	< 1000

Compound	Ki (human MR) [nM]	Ki (glucocorticoid receptor) [nM]
CS(=O)(=O)Nc1cccc(/C=C2\c3ccccc3CCc3cccc(Cl)c32)c1 [Example 365]	< 500	< 500
COc1ccc2c(c1)SCc1ccccc1C2=Cc1cccc(NS(C)(=O)=O)c1 [Example 747]	< 500	< 500
CNc1cccc(C=C2c3ccccc3CCc3ccccc32)c1 [Example 118, [3-(10,11-Dihydro-dibenzo[a,d]cyclohepten-5-ylidenemethyl)-phenyl]-methyl-amine]	< 500	< 500
CS(=O)(=O)Nc1cccc(/C=C2\c3cc(Cl)ccc3COc3ccccc32)c1 [Example 727]	< 500	< 500
Cc1nc2c(s1)/C(=C\c1cccc(NS(C)(=O)=O)c1)c1ccccc1CC2 [483(b), N-[3-(2-Methyl-9,10-dihydro-3-thia-1-aza-benzo[f]azulen-4-ylidenemethyl)-phenyl]-methanesulfonamide]	< 500	< 500
C(=C1c2ccccc2CCc2sccc21)c1ccccc1 [Example 489]	< 500	< 10000
O=S(=O)(Nc1cccc(C=C2c3ccccc3CCc3cc(Cl)ccc32)c1)c1ccccc1 [Example 399]	< 500	< 10000
Cc1ccc2c(c1)CSc1ccccc1/C2=C\c1cccc(NS(C)(=O)=O)c1 [Example 743]	< 500	< 500
C/C(=C1/c2ccc(F)cc2COc2cc(F)ccc21)c1cccc(NS(C)(=O)=O)c1 [Example 809]	< 500	< 500
Cc1ccc2c(c1)CCc1ccccc1C2=Cc1ccc(NS(C)(=O)=O)cc1 [Example 309]	< 500	< 1000
N#Cc1cccc2c1CCc1ccccc1/C2=C\c1cccc(O)c1 [Example 364]	< 500	< 500
CS(=O)(=O)Nc1cccc(/C=C2\c3ccc(Cl)cc3CCc3sccc32)c1 [Example 496]	< 500	< 500
COC(=O)c1ccc(/C=C2/c3ccc(F)cc3CCc3ncccc32)cc1 [Example 587]	< 500	< 10000
Oc1cccc(/C=C2\c3ccccc3CCc3cc(C(F)F)ccc32)c1 [Example 335]	< 500	< 500
Oc1ccc(F)c(C=C2c3ccccc3CCc3ccccc32)c1 [Example 151, 3-(10,11-Dihydro-dibenzo[a,d]cyclohepten-5-ylidenemethyl)-4-fluoro-phenol]	< 500	< 1000
COc1ccc2c(c1)OCc1ccccc1/C2=C/c1cccc(NS(C)(=O)=O)c1 [Example 660]	< 500	< 500
C(=C1c2ccccc2CCc2ccccc21)c1cccc2[nH]ccc12 [Example 220, 4-(10,11-Dihydro-dibenzo[a,d]cyclohepten-5-ylidenemethyl)-1H-indole]	< 500	< 10000
CS(=O)(=O)Nc1cccc(/C=C2/c3ccc(F)cc3CCc3ncsc32)c1 [Example 563]	< 500	< 500
